Results on ten compounds are retold here after PubChem BioAssay (NCI).

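Values below derive from 48-hour exposures of cells grown in 96-well plates, with endpoints linearly interpolated between the two concentrations bracketing the appropriate inhibition level. Here, GI50 denotes the concentration required for 50% inhibition of growth. TGI is the concentration that stops growth completely.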

Common to all, as to assay: growth of human tumour cells (NCI), 48 h
For assay [1], the system named is MALME-3M melanoma.
For assay [2], the system named is HS 578T breast.
Assay [3] deals with SK-MEL-5 melanoma.
For assay [4], the system named is BT-549 breast.
The test system of assay [5] is ACHN renal.
In assay [6] the test system is NCI-H522 lung.
The subject of assay [7] is EKVX NSCLC.
In assay [8] the test system is SK-MEL-28 melanoma.
Assay [9] has as its system DMS 114 small cell lung.
The test system of assay [10] is KM20L2 colon.

As to `Oc1c(Cl)cc(Cl)c2ccc(Cn3cc(-c4ccc(C(F)(F)F)cc4)nn3)nc12`, the GI50 is 1.63 µM in assay [1]; 2.38 µM in [2]; 3.07 µM in assay [3]; 1.94 µM in assay [4]; 1.35 µM in assay [5]; 1.42 µM in [6]. The GI50 in [7] was 5.8 µM; in assay [8], 1.78 µM. The TGI was 3.13 µM in [1]; 8.44 µM in assay [2]; 11.4 µM in assay [3]; 5.22 µM in assay [4]; 2.67 µM in assay [5]; 3.79 µM in assay [6]. For the same compound, the TGI in assay [7] is 19.5 µM; in assay [8], 3.76 µM.

Consider `Cc1nc2c(o1)C(=Nc1ccccc1)c1nc(C)oc1C2=Nc1ccccc1`, for which the TGI came out at 41.6 µM in assay [1]; 60.4 µM in assay [9]; 2.34 µM in [3]; 33.6 µM in assay [5]; 42.7 µM in assay [6]; 70 µM in [10]. The compound further had a TGI in assay [8] of 44.9 µM.

Consider `COc1ccc(OC)c(/C=N/N=C(\N)NO)c1`, for which the TGI in [1] is more than 100 µM; in [9] it was more than 100 µM; in [5], 81.4 µM; in assay [6], 35 µM; in assay [7], more than 100 µM; in assay [8] it was more than 100 µM.

For `O=C(/C=C/c1cccc([N+](=O)[O-])c1)c1ccc([N+](=O)[O-])cc1`, the TGI in [1], in assay [3], in assay [5], in assay [6], in [7] and in [10] was more than 100 µM in each case. Moreover, the TGI in assay [8] is more than 100 µM.

On to `Cc1cc(Nc2cc(N3CCN(C)CC3)nc(/C=C/c3ccccc3)n2)n[nH]1`, for which the GI50 in assay [1] was 0.796 µM; in assay [2] it was 0.517 µM; in assay [3], more than 2.11 µM; in [4] it was 1.12 µM; in assay [5] it was 0.205 µM; in assay [6], 0.336 µM. In addition, the GI50 in [7] is 1.21 µM; in assay [8], 1.41 µM. For the same compound, the TGI in [1] is more than 4.77 µM; in assay [2], 1.86 µM; in assay [3], more than 4.15 µM; in assay [4] it was more than 8.73 µM; in [5], 3.92 µM; in [6] it was more than 2.19 µM. Also, the TGI in assay [7] was more than 7.24 µM; in assay [8] it was more than 5.48 µM.

For `Cc1cn(Cc2ccc(C34CC5CC(CC(C5)C3)C4)c(O)c2)c(=O)[nH]c1=O`, the GI50 in [1] was 14.6 µM; in assay [2], 8.42 µM; in assay [3], 4.37 µM; in [4] it was 8.7 µM; in assay [5], 10.8 µM; in assay [6] it was 8.04 µM. In addition, the GI50 in [7] is 8.21 µM; in [8] it was 6.78 µM. The TGI in assay [1] amounted to 29.7 µM; in assay [2], 33.8 µM; in assay [3], 15.8 µM; in assay [4] it was 20.8 µM; in assay [5], 24.3 µM; in assay [6] it was 24.2 µM. Moreover, the TGI in [7] came out at 29.1 µM; in [8] it was 23.7 µM.

On to `Cc1cc(-c2cc(O)ccc2Cl)cc2nnc(Nc3ccc(OCCN4CCCC4)cc3)nc12`, for which the GI50 in assay [1] is 0.19 µM; in assay [2], 1.54 µM; in assay [3] it was 1.75 µM; in assay [4], 1.45 µM; in assay [5], 1.43 µM; in assay [6], 0.71 µM. Also, the figures for the GI50 in assay [7] and in [8] were 1.57 µM and 0.292 µM, respectively. Also, the TGI in [1] came to 0.426 µM; in [2] it was 3.83 µM; in assay [3] it was 3.37 µM; in assay [4], 3.16 µM; in assay [5], 2.83 µM; in assay [6] it was 2.58 µM. For the same compound, the TGI worked out at 3.27 µM in assay [7] and 0.843 µM in assay [8].

Take `CC(=O)N1N=C(c2ccc(Nc3nc(Nc4ccc(F)cc4)nc(Nc4ccc(F)cc4)n3)cc2)CC1c1ccc(N(C)C)cc1` (stereo not drawn): the GI50 is 11.4 µM in [1]; 1.6 µM in [2]; 2.83 µM in assay [3]; 11 µM in [4]; 6.15 µM in assay [5]; 4.81 µM in assay [6]. Besides, the GI50 in [7] is 15.7 µM; in assay [8], 4.33 µM. Also, the TGI is 34.8 µM in assay [1]; 9.02 µM in [2]; 13 µM in assay [3]; 54.8 µM in assay [4]; 18.7 µM in [5]; 30 µM in assay [6]. The TGI in [7] is more than 100 µM; in [8] it was 19.3 µM.

As for `O=C(Nc1ccc(Cl)c(Cl)c1)C(=O)C(C(=O)c1ccccc1-c1ccccc1)C1OC(=O)c2ccccc21` (stereo not drawn), the TGI in [9] is 27 µM; in [3], 30.3 µM; in assay [5], more than 100 µM; in assay [6], 20.6 µM; in assay [7], 43.4 µM; in assay [10], 52.7 µM. In addition, the TGI in [8] is more than 100 µM.

Turning to `CC(=O)C1=C(O)C=C2Oc3c(C(=O)/C=C/c4cc(Cl)cc(Cl)c4)c(O)c(C)c(O)c3[C@]2(C)C1=O`, the GI50 is 0.335 µM in assay [1]; 0.641 µM in assay [2]; 0.424 µM in assay [3]; 0.395 µM in [4]; 0.513 µM in [5]; 0.334 µM in assay [6]. In addition, the GI50 is 0.444 µM in assay [7] and 0.637 µM in assay [8]. The TGI in assay [1] was found to be 0.739 µM; in assay [2], 3.89 µM; in assay [3] it was 1.05 µM; in [4], 0.961 µM; in [5], 14.2 µM; in assay [6], 0.919 µM. The TGI in [7] amounted to 2.27 µM; in [8], 2.76 µM.
